Test results published in PubChem BioAssay (NCI).
Several values for one entry are separate records, joined by “and”; a condition that tells them apart may be missing. Equal values may be shown once.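 1) Cells in 96-well plates. 2) Compound, 48 h, 5 concentrations. 3) Linear interpolation between surrounding doses. 4) Unreached endpoint = highest concentration. GI50 marks 50% less growth. TGI denotes the concentration required for complete inhibition of growth.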

test system: HT29 colon; assay: NCI tumour cell line growth inhibition, 48 h

| Compound | GI50 | TGI |
| --- | --- | --- |
| O=C1CCCN1c1ccccc1I(=O)=O | > 100 µM | > 100 µM |
| COC(=O)C1=COC(C)C2CN3CCc4c([nH]c5ccccc45)C3CC12 (centres undefined) | 13.8 µM and > 100 µM | 27.2 µM and > 100 µM |
| O=C(NCc1ccc(Cn2c(=O)sn(-c3ccccc3)c2=O)cc1)OCc1ccc2cccc(O)c2n1 | 0.556 µM | 2.08 µM |
| COC(c1ccc(C(C)(C)C)cc1)(c1ccc(C(C)(C)C)cc1)c1ccc(C(C)(C)C)cc1 |  | > 100 µM |
| CC(C)c1[nH]nc2c1N=C(c1ccccc1Cl)c1cc([N+](=O)[O-])ccc1N2 | 8.72 µM | > 22.2 µM |
| Nc1cc2c(cc1Br)[nH]c(=O)c1ccccc12 | 3.46 µM | 10.8 µM |
| COc1ccc(-c2nccn2-c2ccc(OC)cc2)cc1 | 13 µM | 32.9 µM |
| O=C(/C=C/c1ccccc1)c1ccccc1 |  | > 10 µM |
| CC(C)[C@H](O)C(=O)N[C@@H](C)C(=O)N[C@@H]1C(=O)N(C)CCc2ccccc21 | > 100 µM | > 100 µM |
| C=CC(=O)N1CN(C(=O)C=C)CN(C(=O)C=C)C1 | 3.26 µM | 10.4 µM |
| COc1ccc(-c2cnnn2-c2nonc2-n2cccc2)cc1 | 0.128 µM | 2.8 µM |
| ClC(Cl)=C1C(=C(Cl)Cl)C(Cl)(Cl)C1(Cl)Cl |  | 7.85 µM |
| C#CCOc1cccc(Nc2ncnc3c(NC(=O)C=C)cccc23)c1 | 19.3 µM | 98.8 µM |
| CO[C@H]1Nc2c(ccc(C)c2O)C(=O)N2C=C(/C=C/C(N)=O)C[C@@H]12 |  | 1.51 µM |
| O=C(/C(=C\c1c(-c2ccccc2)[nH]c2ccccc12)S(=O)(=O)c1ccccc1)c1ccccc1 | > 100 µM | > 100 µM |
| COc1ccc(C(=O)c2cc(OC)c(OC)c(OC)c2)cc1OC |  | 9.75 µM |
| CCNC(=O)/C(=C/c1ccc(OC)cc1)c1cc(OC)c(OC)c(OC)c1 |  | 65.4 µM |
| CCCc1cc(=O)n2c(C(=O)Nc3ccc(Cl)cc3C)c(C(=O)Nc3ccc(F)cc3)sc2n1 | 12.2 µM | > 150 µM |
| Cc1ccc(OCCOCCOCCOCCOc2ccc(C)n(O)c2=S)c(=S)n1O | < 0.01 µM | > 100 µM |
| N[C@H](CCC(=O)N[C@@H](Cc1c[nH]c2ccccc12)C(=O)O)C(=O)O | > 100 µM | > 100 µM |
| CN(C)CCNCCN |  | > 100 µM |
| Nc1ccccc1O.O.O=C(O)C1[O][Sb][O]C1C(=O)O (centres undefined) | 16.4 µM | > 56.2 µM |
| O=C(c1ccco1)c1c(C(F)(F)F)n([O-])c2ccc(C(F)(F)F)cc2[n+]1=O | 0.243 µM | 0.674 µM |
| OC(c1cc(-c2ccc(C(F)(F)F)cc2)nc(C(F)(F)F)c1)C1CCCCN1 (centres undefined) | 1.65 µM | 3.22 µM and 3.87 µM |
| CC(C)CC(C/C=C1/CC(CO)(COC(=O)C(C)(C)C)OC1=O)CC(C)C (centres undefined) | 10.3 µM and 2.55 µM | 23.2 µM and 18.6 µM |
| O=C(Nc1cc(Nc2ncccc2-c2ncnc3nc[nH]c23)ccc1F)c1cc(C(F)(F)F)cc(C(F)(F)F)c1 | 0.446 µM | 4.03 µM |
| CCc1ccc2c(c1)C(=O)c1c-2n(CCCN=[N+]=[N-])c(=O)c2cc([N+](=O)[O-])ccc12 | > 50 µM | > 50 µM |
| CCC/C=C/C=C/C1CC(O)C(O)C(=O)C1CO (centres undefined) |  | > 100 µM |

test system: DU-145 prostate; assay: NCI tumour cell line growth inhibition, 48 h

| Compound | GI50 | TGI |
| --- | --- | --- |
| O=C1CCCN1c1ccccc1I(=O)=O | > 100 µM | > 100 µM |
| COC(=O)C1=COC(C)C2CN3CCc4c([nH]c5ccccc45)C3CC12 (centres undefined) | 33.7 µM and > 100 µM | > 100 µM |
| O=C(NCc1ccc(Cn2c(=O)sn(-c3ccccc3)c2=O)cc1)OCc1ccc2cccc(O)c2n1 | 1.08 µM | 2.29 µM |
| COC(c1ccc(C(C)(C)C)cc1)(c1ccc(C(C)(C)C)cc1)c1ccc(C(C)(C)C)cc1 |  | > 100 µM |
| CC(C)c1[nH]nc2c1N=C(c1ccccc1Cl)c1cc([N+](=O)[O-])ccc1N2 | 7.87 µM | > 23.6 µM |
| Nc1cc2c(cc1Br)[nH]c(=O)c1ccccc12 | 2.14 µM | 4.76 µM |
